The source of these data is publication PMC9221443, “Peptidomimetics Based on C-Terminus of Blm10 Stimulate Human 20S Proteasome Activity and Promote Degradation of Proteins” (Biomolecules, 2022).

The test system of assay [1] is ChT-L peptidase of proteasome in HEK293T cell extracts. The assay is described as follows: Proteasome ChT-L activity in HEK293T cell lysates. To be noted: 1 µM; HEK293T lysate 20 µg/mL protein; 100 µM Suc-LLVY-AMC. The class given is biochemical, human. The protocol:
Human embryonic kidney cells (HEK293T) were maintained in Dulbecco’s Modified Eagle Medium (DMEM) supplemented with 10% Fetal Bovine Serum and penicillin/streptomycin (100 units/mL/100 µg/mL), at 37 °C with 5% CO2. Cells were grown in a T-75 flask to ~80% confluency and then were lysed using Reporter Lysis Buffer (Promega, Madison, WI, USA) and the manufacturer’s protocol. Protein content was measured using BCA assay. Stock solutions of the fluorogenic substrate (Suc-LLVY-AMC) and the tested peptidomimetics were prepared in dimethyl sulfoxide (DMSO). Potential activators were tested in the following concentrations: 1, 5, 10, 25 and 50 μM. The final DMSO concentration was kept constant at 2%. The activity assays were performed analogously to those described in the proteasome activity assays subsection, in the 96-well plate format in 50 mM Tris-HCl buffer, pH 8.0, using a 100 μL reaction volume. The final concentration of the fluorogenic substrate and cell lysate proteins were: 100 μM and 20 µg/mL, respectively. As a negative control, 1 μM bortezomib solution was used.

For another assay, the target named is 20S proteasome (h20S). As to the kind of experiment: Microscale thermophoresis (MST) protein-proteasome interaction. The class given is binding, human. To be noted: NT-647-labeled protein titrated with h20S 0.06-1965 nM, 22 °C, 20 mM Tris-HCl pH 7.2, three independent experiments. The protocol: Enolase, α-synuclein and their oxidized forms were labeled using Monolith Protein Labeling Kit RED-NHS 2nd Generation Amine Reactive, NT-647 (Nanotemper, München, Germany), according to the manufacturer instructions. The labeling process was carried out in 50 mM HEPES buffer, pH 7.4, in the protein:NT-647 1:2 ratio. The incubation time was 60 min for enolase and 30 min for α-synuclein, at 21 °C. After labeling, the excess of the fluorescent reagent was removed using the columns provided by the manufacturer and 20 mM Tris-HCl buffer, pH 7.2, containing 200 mM NaCl and 10% glycerol. The obtained labeled proteins were concentrated on Amicon 3K spin-columns (Merck, Darmstadt, Germany). Protein concentrations were determined by measuring absorbance at 280 nm, using UV/Vis spectrophotometer (DU®730 Beckman Coulter).
Direct interactions between the fluorescently labeled, native and oxidized, proteins and the 20S proteasome were examined using microscale thermophoresis (NanoTemper Monolith NT.115). The labeled protein concentration was kept constant at 250 nM for native and oxidized α-synuclein and 125 nM and 25 nM for native and oxidized enolase, respectively. […] The EC50 values were calculated based on results obtained in three independent experiments.

As to `CC(C)C[C@H](NC(=O)[C@H](Cc1ccccc1)NC(=O)c1cnccn1)B(O)O` [bortezomib], the “degradation of Suc-LLVY-AMC substrate in cell extracts (negative control)” value in assay [1] was “completely blocked”. For “enolase: native human enolase 2, 434-residue thermolabile protein, model substrate”, on 20S proteasome (h20S), the “EC50 of binding to 20S proteasome (MST, Hill fit)” value is “did not bind”.

Turning to α-synuclein, the EC50 in the assay on 20S proteasome (h20S) (read-out: EC50 of binding to 20S proteasome (MST, Hill fit)) was determined as 32.3 ± 1.3 nM.
